Measured values: ChEMBL document CHEMBL1201862, “PubChem BioAssay data set” (2004)
Each block holds one molecule with its values, some of them ahead of it. Active and inactive are the calls of the source.

How the values were obtained:
[1] = growth suppression of beta-catenin-knockout colon cells, dose response, cell-based, HCT116, human colon tumor (AID 1045); type: functional;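 note: HCT116 colon tumor cells with beta catenin knocked out; cells exposed to compound for 60 hours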
Cytochrome P450 2D6 = Cytochrome P450 2D6 (Homo sapiens, UniProt P10635);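 note: CYP2D6 member of a cytochrome P450 panel assay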
Cytochrome P450 2D6, sequence (P10635 whole entry): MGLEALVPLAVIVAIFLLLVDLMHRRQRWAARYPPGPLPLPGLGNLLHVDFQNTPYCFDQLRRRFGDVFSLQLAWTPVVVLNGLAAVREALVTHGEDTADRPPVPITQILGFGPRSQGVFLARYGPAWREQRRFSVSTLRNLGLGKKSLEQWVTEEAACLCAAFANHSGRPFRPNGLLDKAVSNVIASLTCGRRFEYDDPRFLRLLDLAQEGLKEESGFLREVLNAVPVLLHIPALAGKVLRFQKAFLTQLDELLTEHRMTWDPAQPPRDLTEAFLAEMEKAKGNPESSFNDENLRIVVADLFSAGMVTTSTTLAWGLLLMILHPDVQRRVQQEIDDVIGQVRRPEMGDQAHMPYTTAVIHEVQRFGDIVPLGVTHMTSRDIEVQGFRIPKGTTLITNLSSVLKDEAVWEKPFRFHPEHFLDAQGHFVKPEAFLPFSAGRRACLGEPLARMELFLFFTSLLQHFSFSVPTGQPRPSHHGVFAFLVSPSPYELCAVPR

[2] = growth suppression of PTEN-null colon cells, dose response, cell-based, HCT116 PTEN knockout (AID 1047); type: functional;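 note: HCT116 colon tumor cells with PTEN knocked out; cells exposed to compound for 60 hours before readout; potency for loss of cell viability measured by luminescence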
[3] = biological target: T1, Microphthalmia-associated transcription factor (Homo sapiens, UniProt O75030); assay: TRPM1 promoter luciferase signal decrease, dose response, MITF inhibitor project, cell-based, SK-MEL-5, cherry-picked, set 3 (AID 493073); type: functional
T1 sequence (O75030 whole entry): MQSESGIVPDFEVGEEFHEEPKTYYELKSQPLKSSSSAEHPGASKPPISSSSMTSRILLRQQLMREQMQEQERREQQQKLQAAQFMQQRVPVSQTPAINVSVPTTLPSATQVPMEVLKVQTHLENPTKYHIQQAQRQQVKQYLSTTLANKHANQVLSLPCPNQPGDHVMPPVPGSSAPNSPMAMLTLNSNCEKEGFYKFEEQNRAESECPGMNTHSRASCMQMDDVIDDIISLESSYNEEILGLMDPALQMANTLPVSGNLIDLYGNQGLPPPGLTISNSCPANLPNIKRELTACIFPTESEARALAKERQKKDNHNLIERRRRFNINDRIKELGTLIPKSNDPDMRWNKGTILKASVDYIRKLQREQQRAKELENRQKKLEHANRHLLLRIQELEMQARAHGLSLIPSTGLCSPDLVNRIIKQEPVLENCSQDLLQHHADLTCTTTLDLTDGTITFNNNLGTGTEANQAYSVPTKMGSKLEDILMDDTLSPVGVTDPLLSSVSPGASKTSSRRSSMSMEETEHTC

A-375 = assay: MITF: Counter assay: A375 proliferation Measured in Cell-Based System Using Plate Reader - 2084-03_Inhibitor_Dose_DryPowder_Activity. [Related pubchem assays (depositor defined):AID488944]; type: functional; conditions: Homo sapiens
Escherichia coli [4] = assay: microbe, parasite or virus in culture
Escherichia coli [5] = assay: microbe, parasite or virus in culture; remark: listed apart in the source
[6] = biological target: T2, Voltage-gated N-type calcium channel alpha-1B subunit/Amyloid beta A4 precursor protein-binding family A member 1 (Homo sapiens, UniProt Q00975+Q02410); type: protein assay
T2 sequence (Q00975 whole entry): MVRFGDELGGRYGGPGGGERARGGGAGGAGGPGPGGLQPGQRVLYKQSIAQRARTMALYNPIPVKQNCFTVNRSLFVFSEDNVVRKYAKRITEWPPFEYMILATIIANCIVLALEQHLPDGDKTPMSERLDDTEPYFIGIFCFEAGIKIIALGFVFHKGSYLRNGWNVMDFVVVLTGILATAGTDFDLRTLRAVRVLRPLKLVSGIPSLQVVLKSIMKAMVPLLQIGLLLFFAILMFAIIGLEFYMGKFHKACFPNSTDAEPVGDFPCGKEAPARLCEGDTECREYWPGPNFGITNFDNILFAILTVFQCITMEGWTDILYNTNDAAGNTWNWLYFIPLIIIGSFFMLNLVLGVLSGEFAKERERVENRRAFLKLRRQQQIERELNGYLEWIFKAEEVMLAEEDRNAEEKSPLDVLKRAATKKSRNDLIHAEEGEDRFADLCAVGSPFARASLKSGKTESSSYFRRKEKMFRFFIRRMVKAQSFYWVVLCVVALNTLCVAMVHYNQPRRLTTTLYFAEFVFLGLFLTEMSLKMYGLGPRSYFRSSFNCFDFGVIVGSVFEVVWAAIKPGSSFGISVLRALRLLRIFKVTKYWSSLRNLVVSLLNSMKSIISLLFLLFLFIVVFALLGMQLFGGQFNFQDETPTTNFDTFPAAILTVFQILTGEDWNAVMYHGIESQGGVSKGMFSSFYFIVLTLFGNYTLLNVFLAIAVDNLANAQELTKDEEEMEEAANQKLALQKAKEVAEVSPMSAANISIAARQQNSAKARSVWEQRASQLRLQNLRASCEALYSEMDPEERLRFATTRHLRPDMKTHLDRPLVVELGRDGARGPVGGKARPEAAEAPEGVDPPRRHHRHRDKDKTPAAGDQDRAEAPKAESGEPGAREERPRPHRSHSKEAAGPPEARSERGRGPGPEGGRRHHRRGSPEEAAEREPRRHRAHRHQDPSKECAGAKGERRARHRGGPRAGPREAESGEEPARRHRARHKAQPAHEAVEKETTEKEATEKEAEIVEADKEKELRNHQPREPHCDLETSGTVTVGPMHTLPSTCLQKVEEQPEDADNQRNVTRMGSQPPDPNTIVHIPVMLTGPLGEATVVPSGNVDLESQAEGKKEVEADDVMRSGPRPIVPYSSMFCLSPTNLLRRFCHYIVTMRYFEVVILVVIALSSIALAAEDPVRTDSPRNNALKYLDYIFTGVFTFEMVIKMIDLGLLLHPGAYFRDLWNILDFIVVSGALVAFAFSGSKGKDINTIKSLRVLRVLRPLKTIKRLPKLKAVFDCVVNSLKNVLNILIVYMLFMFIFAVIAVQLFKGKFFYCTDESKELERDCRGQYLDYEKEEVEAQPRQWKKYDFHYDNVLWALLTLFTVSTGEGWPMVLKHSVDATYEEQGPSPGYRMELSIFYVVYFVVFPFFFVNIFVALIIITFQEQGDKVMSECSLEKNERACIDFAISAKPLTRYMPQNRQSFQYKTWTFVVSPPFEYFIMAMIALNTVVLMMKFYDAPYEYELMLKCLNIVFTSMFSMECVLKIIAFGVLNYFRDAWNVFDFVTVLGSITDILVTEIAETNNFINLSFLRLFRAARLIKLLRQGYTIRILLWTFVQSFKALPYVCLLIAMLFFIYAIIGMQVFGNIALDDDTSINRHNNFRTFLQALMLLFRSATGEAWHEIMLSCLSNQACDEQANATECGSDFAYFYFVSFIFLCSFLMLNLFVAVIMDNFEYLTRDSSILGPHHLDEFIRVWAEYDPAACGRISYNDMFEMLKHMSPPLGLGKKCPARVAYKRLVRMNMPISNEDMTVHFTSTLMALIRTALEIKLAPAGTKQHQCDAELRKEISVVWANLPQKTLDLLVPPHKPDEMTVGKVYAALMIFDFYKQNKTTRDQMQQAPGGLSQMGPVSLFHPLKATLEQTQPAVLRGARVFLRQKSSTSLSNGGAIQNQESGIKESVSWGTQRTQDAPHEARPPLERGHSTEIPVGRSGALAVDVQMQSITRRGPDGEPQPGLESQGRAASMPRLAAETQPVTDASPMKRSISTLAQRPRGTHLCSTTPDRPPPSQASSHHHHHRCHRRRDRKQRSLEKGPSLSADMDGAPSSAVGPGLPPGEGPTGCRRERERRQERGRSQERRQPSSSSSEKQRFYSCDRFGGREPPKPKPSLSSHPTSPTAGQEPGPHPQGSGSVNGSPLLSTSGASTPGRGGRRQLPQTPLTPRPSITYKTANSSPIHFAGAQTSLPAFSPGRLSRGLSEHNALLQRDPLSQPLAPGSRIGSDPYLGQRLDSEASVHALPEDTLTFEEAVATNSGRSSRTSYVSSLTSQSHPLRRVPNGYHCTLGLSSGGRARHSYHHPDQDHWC
T2 sequence (Q02410 whole entry): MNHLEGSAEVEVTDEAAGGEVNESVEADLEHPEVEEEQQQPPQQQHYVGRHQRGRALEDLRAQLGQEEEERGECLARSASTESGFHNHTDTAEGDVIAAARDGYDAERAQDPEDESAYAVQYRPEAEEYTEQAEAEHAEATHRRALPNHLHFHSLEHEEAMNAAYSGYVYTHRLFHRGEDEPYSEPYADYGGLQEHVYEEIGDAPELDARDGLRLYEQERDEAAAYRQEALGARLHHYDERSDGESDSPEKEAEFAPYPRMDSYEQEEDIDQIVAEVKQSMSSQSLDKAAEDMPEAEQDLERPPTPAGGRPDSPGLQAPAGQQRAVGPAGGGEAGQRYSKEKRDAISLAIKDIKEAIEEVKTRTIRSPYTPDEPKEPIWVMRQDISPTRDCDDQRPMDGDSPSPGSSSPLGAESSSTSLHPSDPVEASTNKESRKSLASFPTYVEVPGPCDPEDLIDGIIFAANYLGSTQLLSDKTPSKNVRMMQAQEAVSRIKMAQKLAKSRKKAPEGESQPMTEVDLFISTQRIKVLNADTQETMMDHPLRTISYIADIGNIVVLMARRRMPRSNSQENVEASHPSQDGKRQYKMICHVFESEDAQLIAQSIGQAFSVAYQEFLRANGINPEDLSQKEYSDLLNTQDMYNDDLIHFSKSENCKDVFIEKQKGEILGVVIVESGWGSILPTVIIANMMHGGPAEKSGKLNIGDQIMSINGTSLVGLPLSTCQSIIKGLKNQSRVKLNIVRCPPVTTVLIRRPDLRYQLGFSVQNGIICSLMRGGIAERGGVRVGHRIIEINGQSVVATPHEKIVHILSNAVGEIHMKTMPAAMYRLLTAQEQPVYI

[7] = biological target: Eukaryotic translation initiation factor 4E (Mus musculus, UniProt P63073); assay: eIF4E–eIF4G protein interaction inhibitors, dose response, biochemical, TR-FRET (AID 855); type: functional;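 note: potency for disrupting eIF4E binding to eIF4GI seen as loss of FRET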
Eukaryotic translation initiation factor 4E, sequence (P63073 whole entry): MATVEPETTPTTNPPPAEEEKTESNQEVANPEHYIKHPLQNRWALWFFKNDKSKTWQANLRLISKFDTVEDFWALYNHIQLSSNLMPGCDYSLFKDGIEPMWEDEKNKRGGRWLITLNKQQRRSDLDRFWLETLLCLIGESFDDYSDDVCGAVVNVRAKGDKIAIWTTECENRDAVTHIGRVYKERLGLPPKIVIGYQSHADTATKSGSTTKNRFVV

[8] = biological target: T3, Mannose-6-phosphate isomerase (Homo sapiens, UniProt P34949); assay: human PMI inhibitors, high substrate, primary screen, biochemical, fluorescence intensity, high mannose 6-phosphate (AID 1220)
T3 sequence (P34949 whole entry): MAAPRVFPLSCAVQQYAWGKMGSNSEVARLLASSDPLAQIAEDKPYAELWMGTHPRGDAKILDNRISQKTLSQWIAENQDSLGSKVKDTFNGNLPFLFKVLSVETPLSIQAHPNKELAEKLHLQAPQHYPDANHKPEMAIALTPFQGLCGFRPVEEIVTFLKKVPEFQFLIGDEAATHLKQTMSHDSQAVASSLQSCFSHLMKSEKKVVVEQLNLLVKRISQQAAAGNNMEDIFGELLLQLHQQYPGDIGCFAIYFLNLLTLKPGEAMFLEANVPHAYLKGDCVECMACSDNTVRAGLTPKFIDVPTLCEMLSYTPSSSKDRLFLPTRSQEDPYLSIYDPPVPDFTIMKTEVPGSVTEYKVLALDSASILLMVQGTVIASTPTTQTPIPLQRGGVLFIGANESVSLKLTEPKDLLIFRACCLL

[9] = biological target: T3, Mannose-6-phosphate isomerase; assay: PMI enzyme inhibitors, confirmation, biochemical, fluorescence intensity (AID 1535)
[10] = HeLa cell cytotoxicity, dose response, cytotoxicity control for MgcRacGAP inhibitor project (AID 624300); type: functional
X-box-binding protein 1 = biological target: T4, X-box-binding protein 1 (Homo sapiens, UniProt P17861); type: functional, Cricetulus griseus;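 note: confirmatory dose-response counter-screen serving a CHOP assay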
T4 sequence (P17861 whole entry): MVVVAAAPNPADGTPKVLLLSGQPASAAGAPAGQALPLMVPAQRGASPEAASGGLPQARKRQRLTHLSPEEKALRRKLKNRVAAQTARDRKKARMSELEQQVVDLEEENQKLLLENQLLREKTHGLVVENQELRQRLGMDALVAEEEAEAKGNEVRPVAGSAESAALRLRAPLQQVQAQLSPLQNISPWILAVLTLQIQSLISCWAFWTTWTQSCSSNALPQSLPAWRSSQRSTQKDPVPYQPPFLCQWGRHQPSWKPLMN

[11] = biological target: T5, Rac GTPase-activating protein 1 (Homo sapiens, UniProt Q9H0H5); assay: MgcRacGAP GTPase-activating activity inhibitors, confirmation, biochemical, ADP Hunter fluorescence, primary and confirmatory (AID 624330); type: functional
T5 sequence (Q9H0H5 whole entry): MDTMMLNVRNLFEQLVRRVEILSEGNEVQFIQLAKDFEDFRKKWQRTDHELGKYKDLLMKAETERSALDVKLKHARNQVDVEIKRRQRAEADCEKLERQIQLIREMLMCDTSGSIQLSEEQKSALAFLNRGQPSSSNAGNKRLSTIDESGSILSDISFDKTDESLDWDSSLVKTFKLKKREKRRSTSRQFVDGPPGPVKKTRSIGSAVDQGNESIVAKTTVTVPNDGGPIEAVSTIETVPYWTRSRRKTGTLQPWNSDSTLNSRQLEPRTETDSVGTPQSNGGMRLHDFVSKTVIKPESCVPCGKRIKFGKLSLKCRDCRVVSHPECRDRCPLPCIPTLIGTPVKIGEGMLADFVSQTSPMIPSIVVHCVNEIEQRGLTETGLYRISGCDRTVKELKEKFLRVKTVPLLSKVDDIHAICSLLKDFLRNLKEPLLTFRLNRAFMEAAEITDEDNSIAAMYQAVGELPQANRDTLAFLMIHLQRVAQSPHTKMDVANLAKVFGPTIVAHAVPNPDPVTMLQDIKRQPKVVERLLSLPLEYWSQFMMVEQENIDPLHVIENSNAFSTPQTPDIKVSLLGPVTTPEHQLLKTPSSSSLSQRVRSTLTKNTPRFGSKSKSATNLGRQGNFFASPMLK

Phosphomannomutase 2 = biological target: T6, Phosphomannomutase 2 (Homo sapiens, UniProt O15305); assay: Counter screen SAR assay for PMM2 inhibitors via a fluorescence intensity assay. [Related pubchem assays (depositor defined):AID1545, AID1574]
T6 sequence (O15305 whole entry): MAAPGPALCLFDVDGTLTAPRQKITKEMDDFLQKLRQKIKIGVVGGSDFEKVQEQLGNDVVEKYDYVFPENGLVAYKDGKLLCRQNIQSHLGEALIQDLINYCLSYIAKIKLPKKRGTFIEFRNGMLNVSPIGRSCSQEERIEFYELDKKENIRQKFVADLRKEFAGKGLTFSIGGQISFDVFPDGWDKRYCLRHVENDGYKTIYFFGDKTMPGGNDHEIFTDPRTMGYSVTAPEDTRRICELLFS

[12] = biological target: T2, Voltage-gated N-type calcium channel alpha-1B subunit/Amyloid beta A4 precursor protein-binding family A member 1; type: protein assay; remark: listed apart in the source
[13] = biological target: Heat shock protein HSP 90-alpha (Homo sapiens, UniProt P07900); type: functional, organism-based

Structure (SMILES): O=C(N/N=C/c1cc([N+](=O)[O-])ccc1N1CCNCC1)c1ccc([N+](=O)[O-])cc1
EC50 [1]: 12.1 µM (active) | AC50 (Cytochrome P450 2D6): 25.1 µM (inconclusive) | EC50 [2]: 11.1 µM (active) | AC50 [3]: 8.19 µM (active) | AC50 (A-375): 24.1 µM (active)

Structure (SMILES): CCc1ccc2c(c1)cc(CN(Cc1ccco1)C(C)=O)c1nnnn12
AC50 (Escherichia coli [4]): 24.6 µM (active) | AC50 (Escherichia coli [5]): 98.8 µM (active)

IC50 [6]: 4.16 µM (active) | IC50 [7]: 50 µM (inactive) | IC50 [8]: > 50 µM (not active) | IC50 [9]: 7.28 µM (active) | Absolute IC50 (XBP1) (X-box-binding protein 1): < 10 µM | IC50 [11]: 37.5 µM (active) | IC50 (Phosphomannomutase 2): > 100 µM (inactive) | IC50 [12]: 11.6 µM (active) | AC50 [13]: 24.4 µM (active)
Structure (SMILES): Clc1nss/c1=N\c1ccc(Br)cc1
CC50 [10]: 100 µM (active)
